Results as given in patent publication US20060183221A1, “Method for neural differentiation of embryonic stem cells using protease passaging techniques” (priority 2003, published 2006).
“Also recorded” adds a separate entry of the source.

Columns and labels:
[1] = tested on: Oct4; assay: Oct4 expression by immunoblotting in EB8 stage ES cells incubated with S18; format: cell-based, mouse
Procedure: (§1) In vitro differentiating ES cells at stage EB8 were incubated for 24-48 hours with 75 μM S18, or 35 μM N-acyl sphingosine or other ceramide analogs. Protein was isolated from cells incubated with S18 for 24 hours and from untreated cells, separated by SDS-PAGE, and the expression of Oct4 was analyzed by immunoblotting.

[2] = tested on: EB8-derived cells; assay: Injection of ceramide analog treated EB8-derived stem cells into mouse brains, teratoma formation; format: in vivo; conditions: EB8-derived cells treated with 75 μM S18 for 24-48 hours, injected into brain of 8-10 day old C57BL6 mice, analysed after 7-21 days
Procedure: as §1
Prior to injection into the mouse brain, ES cells were labeled with Vybrant-DiI (rhodamine fluorescence) for permanent vital staining and were mixed with India ink in order to track the injection channel and cell migration/tissue integration. 1×10^4 of the untreated ES-J1 cells were injected, while 2×10^4 of the S18-treated cells were injected in order to control for the percentage of cells lost to apoptosis. The ES cells were injected into the right brain hemisphere (bregma −1.5 mm, 1 mm lateral of central suture, 2.0 mm deep) of 8-10 day old C57BL6 mice using a Hamilton syringe. After 7-21 days, the mice were sacrificed, the brain isolated and fixed with 10% PBS-buffered formalin. The brains were Vibratome sectioned at 100 μm. The distribution of the injected cells was determined by fluorescence microscopy.

[3] = tested on: seeded sfEBMs derived from domed HESC colonies; assay: S18 treatment of seeded serum free embryoid bodies (sfEBMs), cell death by morphology and DAPI staining; format: cell-based, human
Excerpt: sfEBMs were derived from domed HESC colonies, grown in suspension for 24 days with one passage, and seeded to polyornithine/laminin coated chamber slides in DMEM/F12, supplemented with 1×N2 (Gibco), and 1% FCS.
Apoptosis in seeded serum free embryoid bodies was monitored by morphological observation of cell death and DAPI staining to reveal apoptotic nuclei. Apoptotic nuclei were observed as obviously fragmented and degenerating nuclei, with small punctuate patterns of DAPI staining. Rosette regions from essentially serum free embryoid bodies in suspension were passaged further in the same medium, either withdrawing S18 or culturing the embryoid bodies for an additional 4 to 8 days in the presence of S18. Rosette regions were then seeded onto polyornithine/laminin coated slides for analysis of proliferation and differentiation to neural lineages.

[4] = tested on: SSEA4 selected HESCs; assay: Neural differentiation of SSEA4 selected bulk passaged HESCs as serum free embryoid bodies with or without MEDII and S18, seeded and immunostained; format: cell-based, human; conditions: with or without 10 μM S18 from day 13 to day 17
Procedure: Cultures were treated with or without 10 μM S18 from day 13 to day 17. After S18 treatment, serum free embryoid bodies were washed several times and cultured further until day 18. Serum free embryoid bodies were cut into pieces to seed down to polyornithine/laminin coated slides.
In the presence of MEDII, a consistently high proportion of the culture contained TH+ neurons, with the background of non-neural regions that was negative for the neuronal marker βIII-Tubulin typically lower than 10%. It was not determined whether the effect of MEDII induced more efficient neuralization or inhibited the generation of non-neural cell types. […] This proportion was determined by analysis of double staining of neural extensions for βIII-Tubulin and TH (FIG. 18), and overlaying Hoffman images with TH immunofluorescence (FIG. 19). The increase in the proportion of TH+ neurons in MEDII treated differentiations appeared to be due to the overall increase in neuronal differentiation, rather than an effect on the proportion of neurons that were dopaminergic, because the proportions of neurons that were TH+ in differentiations not exposed to MEDII was equally high. Another marker of DA cells, VMAT, was expressed in similarly high proportions of cells within the sfEBM cultures. TH+/VMAT−, TH−/VMAT+ and TH+/VMAT+ cells were observed (FIG. 20), possibly indicating temporal variability in the induction of expression of these markers prior to being co-expressed.

## CCCCCCCC/C=C\CCCCCCCC(=O)NC(CO)CO [S18, N-(2-hydroxy-1-(hydroxymethyl)ethyl)-oleoylamide]
[1]; 75 μM S18 for 24 hours, SDS-PAGE immunoblot
  Oct4 protein level by immunoblot relative to untreated control cells: 25%
[1]; after treatment with S18
  decrease in Oct4 protein levels: 75%
[2]
  teratoma formation: No teratomas were detected; also recorded: did not show the formation of teratomas
[3]; 6, 8 or 10 μM S18
  time until the effect was observed: ≤ 24 h
[3]; 6, 8 or 10 μM S18 for 36 hours
  effect on neural rosette structures: did not appear to be adversely affected
  induction of apoptosis in the culture: induced apoptosis of a large proportion of the culture
[3]; 36 hours exposure to 6 μM S18
  cell death: a high proportion of cells within these cultures have been killed
[3]; 36 hours exposure to 8 μM S18
  cell death: a high degree of cell death is apparent
[4]
  differences between S18− and S18+ cultures (sfEB, sfEBM): No gross morphological or immunocytochemical staining differences were observed
